Assay [1] has as its target T1, HS2ST (Gallus gallus, UniProt Q76KB1).
T1 construct: made in house; host or cells: E. coli Rosetta-gami (DE3)
T1 sequence (Q76KB1 1-356): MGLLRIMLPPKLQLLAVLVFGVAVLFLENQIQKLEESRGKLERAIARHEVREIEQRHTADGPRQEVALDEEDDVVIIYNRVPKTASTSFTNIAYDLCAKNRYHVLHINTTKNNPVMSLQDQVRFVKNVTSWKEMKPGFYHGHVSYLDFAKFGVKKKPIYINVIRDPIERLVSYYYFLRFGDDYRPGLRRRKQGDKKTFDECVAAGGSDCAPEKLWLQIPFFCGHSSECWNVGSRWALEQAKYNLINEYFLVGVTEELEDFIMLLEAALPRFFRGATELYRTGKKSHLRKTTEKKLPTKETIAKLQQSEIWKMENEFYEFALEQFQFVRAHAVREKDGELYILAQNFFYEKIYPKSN
The assay is described as follows: Microfluidic mobility shift sulfation assay, HS2ST (fluorescent hexasaccharide substrate). Format: biochemical, chicken. The following applies: for IC50: read-out: IC50 against HS2ST. As for the experimental part: Compounds were initially screened at 400 μM in the presence 20 nM HS2ST and 0.1 μM TPST1 respectively.
Fig. 4 Summary of enzymatic inhibition assays against HS2ST and TPST1. (A) Enzymatic analysis of HS2ST1 inhibition by a panel of PAP- and PAPS-mimetic compounds. […] HS2ST sulfotransferase activity was assayed using a fluorescent hexasaccharide substrate (2 μM) and normalised to DMSO (4% v/v) or buffer control. Data shown is mean and SD of 4 repeat experiments. (B) Full dose–response curves for selected compounds. […] HS2ST activity calculated as previously described. Data from two independent experiments are combined. (C) Enzymatic analysis of TPST1 inhibition by a panel of PAP- and PAPS-mimetic compounds. […] TPST1 activity was measured using fluorescently-labelled CC4-tide (2 μM) and normalised to DMSO (4% v/v) or buffer control. (D) Full dose–response curves for selected compounds. […] TPST1 activity was measured using CC4-tide and normalised to DMSO or buffer controls as previously described. The data shown is from duplicate experiments.
N-sulfated, fluorescein-tagged HS2ST1 hexasaccharide glycan substrate (GlcNS-GlcA- GlcNS-IdoA-GlcNS-GlcA-fluorescein, where S=sulfation) containing L-IdoA at the third residue from the reducing end (to which a linker and the fluorophore were conjugated) was purchased from GLY CAN therapeutics. TPST1 peptide substrate (CC4-tide, 5-FAM-EDFED YEFDG-CONH2) was synthesised using solid-phase Fmoc chemistry (Pepceuticals, Leicester, UK). All standard laboratory biochemicals, were purchased from Sigma, and were of the highest analytical quality.
5'-phosphosulfate, lithium salt hydrate, PAP (adenosine 3',5'-diphosphate, disodium salt), CoA (coenzymeA, sodium salt), ATP (adenosine 5’-triphosphate, disodium salt hydrate) were all purchased from Sigma and stored at -80 °C to minimise degradation.
Recombinant Protein Production and SDS-PAGE […]
Microfluidics-Based Sulfation Assay
Non-radioactive microfluidic mobility shift peptide and carbohydrate sulfation assays were performed in solution with a 12-sipper chip coated with SR8 reagent and a Perkin Elmer EZ Reader II system 8 using an EDTA-based separation buffer and real-time kinetic evaluation of substrate sulfation. Pressure and voltage settings were adjusted manually to afford optimal separation of the sulfated product and non-sulfated substrate, with a sample (sip) volume of 20 nL, and total assay tim es appropriate for the experiment. The fluorophore tagged TPST1 peptide substrate and HS2ST1 glycan substrate where detected by the EZ Reader via LED-induced fluorescence.
Individual sulfation assays were assembled in a 384 well plate in a volume of 80 µL in the presence of […]
and 5 mM MgCl2. The degree of substrate sulfation was directly calculated using EZ Reader software by measuring the sulfo-product:non-sulfated substrate ratio at each time-point. The act ivity of the sulfotransferase enzymes in the presence of biochemicals and small molecule inhibitors was quantified in ‘kinetic mode’ by monitoring the amount of sulfated product generated over the assay time, relative to control assay with no additional inhibitor molecule (DMSO or buffer control). Data was normalized with respect to these control assays, with sulfate incorporation into the substr ate limited to ~ 20% to prevent depletion of PAPS and to ensure assay linearity. K m and IC50 values were determined by non-linear regression analysis with GraphPad Prism software. […]

The target in assay [2] is PKA (Homo sapiens, UniProt P17612). The assay is described as follows: PKA kinase counter-screen. Format: biochemical. Particulars: compound 400 μM, PKA 1 nM, ATP 5 μM, 30 min, 20 °C. The text has this: Fig. 5 Immunological evaluation of TPST1 inhibition towards substrate and a Ser/Thr protein kinase counter-screen. (A) Immunoblots evaluating TPST1 sulfotransferase activity in the presence of a panel of PAP- and PAPS-mimetic compounds. […] After termination of the reaction using SDS-PAGE sample buffer, tyrosine sulfation was visualised by immunoblotting using a monoclonal sulfotyrosine antibody (top panel), with equal GST-CC4-tide and TPST1 loading confirmed using an antibody to detect 6xHis tagged proteins (bottom panel). (B) Enzymatic inhibition of PKA catalytic activity by a panel of PAP- and PAPS-mimetic compounds. PKA kinase (1 nM) was incubated with ATP (5 μM) in the presence of the appropriate nucleoside analogue (400 μM) for 30 min at 20 °C. PKA activity was calculated in real-time using fluorescently-labelled substrate peptide (2 μM) and normalised to DMSO (4% v/v) or buffer control.[77] Data in B is mean and SD of 3 individual experiments. Staurosporine is included at 40 μM as a generic inhibitor of kinase activity.
Finally, a simple counter-screen was set up employing PKA. This was carried out in order to assess relative specificity for ST inhibition, and using the generic kinase inhibitor staurosporine A as a positive control and PAP and CoA as negative controls, neither of which bind nor inhibit PKA. Compounds were screened at 400 μM in the presence 1 nM PKA.
Background: Counterscreens check selectivity or assay interference.

For orientation: IC50 means the concentration needed to halve the response being measured. On to `Nc1ncnc2c1ncn2[C@H]1C[C@H](OP(=O)(O)O)[C@@H](COP(=O)(O)O)O1` [2′-deoxy-PAP], for which, in assay [1], the IC50 was determined as 12.7 µM. Moreover, the “inhibitory activity towards PKA” value in assay [2] was “no activity”.

As to `Nc1ncnc2c1ncn2[C@H]1C[C@H](O)[C@@H](Cn2cc(P(=O)(O)OCc3ccccc3)nn2)O1` [Compound 13], the IC50 in assay [1] fell in the range of 100 to 300 µM. On the same count and under the same terms, as for `Nc1ncnc2c1ncn2[C@H]1C[C@H](OP(=O)(O)O)[C@@H](Cn2cc(P(=O)(O)O)nn2)O1` [Compound 12], the figure is 100 to 300 µM. `Nc1ncnc2c1ncn2[C@H]1C[C@H](O)[C@@H](Cn2cc(P(=O)(O)O)nn2)O1` [Compound 11]: the “inhibitory activity against HS2ST” value in assay [1] (compound 400 μM, HS2ST 20 nM, PAPS 5 μM) is “inactive”.

For the origin of these results see publication PMC9072872, “Structure-based design of nucleoside-derived analogues as sulfotransferase inhibitors” (RSC Advances, 2019).
